Biological target: PtmO8 (Streptomyces platensis, UniProt A0A0A0UVL0)
Experiment: steady-state enzyme kinetics
Type: biochemical

Compound: NC(=O)c1ccc[n+]([C@@H]2O[C@H](COP(=O)([O-])OP(=O)(O)OC[C@H]3O[C@@H](n4cnc5c(N)ncnc54)[C@H](O)[C@@H]3O)[C@@H](O)[C@H]2O)c1 [NAD^+]
- Km: 34.2 ± 3.6 µM
